From patent EP4410314A1, “COMBINATION THERAPY COMPRISING ANTI-CD22 ANTIBODY-DRUG CONJUGATE AND IRAK1 INHIBITOR” (ADC Therapeutics SA, priority 2023, dated 2024)

Key:
CLL = experiment: In vitro cytotoxic activity, lymphoma cell line panel: CLL; format: cell-based, human; conditions: 2 cell lines, read-out: Median IC50
GRANTA-519 = experiment: In vitro cytotoxicity, GRANTA-519; format: cell-based, human; conditions: GRANTA-519 (MCL), CD22-positive; mean ± SEM
Daudi = experiment: In vitro cytotoxicity, Daudi; format: cell-based, human; conditions: Daudi (BL), CD22-positive; mean ± SEM
[1] = tested on: Ramos, TMD8, and SU-DHL-4 cell lines; experiment: In vitro cytotoxicity following pretreatment with chidamide; format: cell-based; conditions: pretreatment with chidamide (0.25 or 0.5 µM) for 7 days, then ADC for 5 days
Procedure: Chidamide (Selleckchem) was dissolved in dimethyl sulfoxide (DMSO) according to the manufacturer's instructions. Cells were treated with chidamide (0.25 or 0.5 µM) for 7 days at 37°C in a 5% carbon dioxide-gassed, humidified incubator. On day 3, cells were centrifuged, and fresh medium containing the corresponding concentrations of chidamide was added. The control group was treated with equal volumes of DMSO.
Cell viability was measured with the CellTiter 96 Aqueous One Solution Cell Proliferation Assay (Promega). Data were normalized to untreated control cells. The IC50 values were determined using GraphPad software (GraphPad). The mean and standard errors of 3 independent IC50 values were determined.

ABC-DLBCL = experiment: In vitro cytotoxic activity, lymphoma cell line panel: ABC-DLBCL; format: cell-based, human; conditions: 6 cell lines, read-out: Median IC50
SUP-T1 = experiment: In vitro cytotoxicity, SUP-T1; format: cell-based, human; conditions: SUP-T1 (T-LL), CD22-negative; mean ± SEM
GCB-DLBCL = experiment: In vitro cytotoxic activity, lymphoma cell line panel: GCB-DLBCL; format: cell-based, human; conditions: 20 cell lines, read-out: Median IC50
ALCL = experiment: In vitro cytotoxic activity, lymphoma cell line panel: ALCL; format: cell-based, human; conditions: 5 cell lines, read-out: Median IC50
CTCL = experiment: In vitro cytotoxic activity, lymphoma cell line panel: CTCL; format: cell-based, human; conditions: 3 cell lines, read-out: Median IC50
DO HH-2 = experiment: In vitro cytotoxicity, DO HH-2; format: cell-based, human; conditions: DO HH-2 (FL), CD22-positive; mean ± SEM
[2] = tested on: CD22-expressing Ramos cells; experiment: Cell surface binding, internalization and LAMP-1 colocalization; format: cell-based, human
SEM cells = experiment: In vitro cytotoxicity, SEM; format: cell-based, human; conditions: SEM (B-ALL), CD22-positive; mean ± SEM
MEC-2 = experiment: In vitro cytotoxicity, MEC-2; format: cell-based, human; conditions: MEC-2 (CLL), CD22-positive; mean ± SEM
Ramos cells = experiment: DNA interstrand crosslinks, single cell gel electrophoresis (Comet) assay, Ramos; format: cell-based, human; conditions: 2-hour exposure
Procedure: Quantification of in vitro DNA interstrand crosslinks (ICLs) was performed using the single cell gel electrophoresis (Comet) assay.
DNA ICLs were measured using a modification of the single-cell gel electrophoresis (Comet) assay, and crosslinking was expressed as the percentage decrease in Olive tail moment (OTM) versus control irradiated cells. […] Immediately after the drug incubation period, a low level of ICLs (3%) was observed, which increased over time to near peak levels (≈50%) at 12 hours and persisted up to 48 hours. […] In this cell line, SG3199 produced a high level of ICL (≈50%), similar to that observed in the Ramos cell line.

NALM-6 = experiment: In vitro cytotoxicity, NALM-6; format: cell-based, human; conditions: NALM-6 (B-ALL), CD22-positive; mean ± SEM
[3] = tested on: CD22-negative KARPAS-299 cells; experiment: Bystander killing by conditioned medium transfer; format: cell-based, human; conditions: for percentage survival of KARPAS-299 cells: 96 hours incubation
Procedure: The ADCT-602-conditioned medium elicited a bystander effect after 1 day of pretreatment, as shown by a decrease in the percentage survival in the conditioned medium-treated KARPAS-299 cells, compared with the nonconditioned medium (97% to 78%, P = .001). The bystander effect increased after 2 to 3 days of preincubation in Ramos cells, as shown by a further decrease in the percentage of cell survival compared with the nonconditioned medium (66% and 62%, P < .0001).

B-cell lymphomas = conditions: read-out: Median IC50, 48 cell lines
Ramos xenograft = experiment: SC Ramos xenograft; format: in vivo, mice
Text: Ramos, WSU-DLCL2, and KARPAS-299 xenografts were established in 8- to 10-week-old female Fox Chase mice with severe combined immunodeficiency (Charles River Laboratories) by implanting 10^7 cells subcutaneously (SC) into their flanks. When group mean tumor volumes reached approximately 116 to 132 mm^3, mice were randomly allocated into groups to receive the test agent or vehicle. Each animal was euthanized when its tumor reached the end point volume or at the study end. The time to end point (TTE) for analysis was calculated for each mouse by the following equation: TTE (days) = ([log10(end point volume−intercept^(*)]/slope^(*)) [formula] where the * indicates the slope of the line obtained by linear regression of a log-transformed tumor growth data set.
The log-rank test was used to analyze the significance of differences in TTE between the 2 groups. For the disseminated xenografts model, 10^7 REH cells were inoculated intravenously (IV) into 5- to 8-week-old female NOG mice (Taconic Biosciences). Test compounds were administered IV 4 days after tumor cell inoculation. Individual mice were euthanized, and an autopsy was performed when hind leg paralysis (a sign of leukemia development) occurred and/or the body weight decreased ≥20%. The study was terminated on day 62. The log-rank test was used to determine the significance of the differences in overall survival.

PMBCL = experiment: In vitro cytotoxic activity, lymphoma cell line panel: PMBCL; format: cell-based, human; conditions: 1 cell line, read-out: Median IC50
MCL = experiment: In vitro cytotoxic activity, lymphoma cell line panel: MCL; format: cell-based, human; conditions: 10 cell lines, read-out: Median IC50
Ramos = experiment: In vitro cytotoxicity, Ramos; format: cell-based, human; conditions: Ramos (BL), CD22-positive; mean ± SEM
MZL = experiment: In vitro cytotoxic activity, lymphoma cell line panel: MZL; format: cell-based, human; conditions: 6 cell lines, read-out: Median IC50
[4] = single dose 1 mg/kg, end of the study (day 60)

ADCT-602: novel ADC targeting CD22 that consists of humanized monoclonal antibody hLL2-C220, sitespecifically conjugated to the pyrrolobenzodiazepine (PBD) dimer-based payload tesirine
IC50 (CLL): 0.23 nM | IC50 (GRANTA-519): 0.02 ± 0.0005 nM | IC50 (Daudi): 0.07 ± 0.021 nM | improvement of ADCT-602 IC50 compared with cells pretreated with DMSO [1]: up to 2.5 fold | IC50 (ABC-DLBCL): 0.395 nM | IC50 (SUP-T1): 9.34 ± 1.02 nM | IC50 (GCB-DLBCL): 0.1 nM | IC50 (ALCL): 2.85 nM | IC50 (CTCL): 1.75 nM | IC50 (DO HH-2): 0.06 ± 0.009 nM | internalization and trafficking to lysosomes ([2]; 37°C, 1- and 2-hour time points): cellular internalization and colocalization of ADCT-602 with LAMP-1 | residual ADC staining ([2]; 24 hours): no residual ADC staining | cell surface (membrane) binding ([2]; T 0 hours): prominent cell surface binding | IC50 (SEM cells): 0.52 ± 0.08 nM | IC50 (MEC-2): 0.18 ± 0.05 nM | DNA ICLs, percentage decrease in Olive tail moment (OTM) versus control irradiated cells (Ramos cells; immediately after the drug incubation period): 3% | DNA ICLs, percentage decrease in Olive tail moment (OTM) versus control irradiated cells (Ramos cells; peak / near peak level at 12 hours): ≈ 50% | IC50 (NALM-6): 0.11 ± 0.018 nM | change in percentage of cell survival compared with the nonconditioned medium ([3]; conditioned medium from ADCT-602-treated, CD22-negative NCI-N87 cells): no significant change | percentage survival of KARPAS-299 cells ([3]; conditioned medium from Ramos cells treated with ADCT-602 for 1 day): 78% | percentage survival of KARPAS-299 cells ([3]; conditioned medium from Ramos cells treated with ADCT-602 for 2 days): 66% | percentage survival of KARPAS-299 cells ([3]; conditioned medium from Ramos cells treated with ADCT-602 for 3 days): 62% | percentage survival of KARPAS-299 cells ([3]; nonconditioned medium, comparator for 1 day pretreatment): 97% | IC50 (B-cell lymphomas): 0.2 nM | CRs (Ramos xenograft; [4]): 10/10 | tumor-free survivors (Ramos xenograft; [4]): 9/10 | antitumor activity compared with the vehicle and the isotype control ADC (Ramos xenograft; single dose at 0.3 and 1 mg/kg): specific and dose-dependent antitumor activity | IC50 (PMBCL): 0.035 nM | IC50 (MCL): 0.375 nM | IC50 (Ramos): 0.06 ± 0.021 nM | IC50 (MZL): 0.0625 nM
